{
  "source": "patent US20240353397A1",
  "about": "“MARKERS OF RESISTANCE AND DISEASE TOLERANCE AND USES THEREOF” (priority 2021, published 2024)",
  "key": {"resistance (R) level": {"test_system": "resistance (R) level", "test": "Connectivity map drug screen: effect of each drug on resistance level", "type": "cell-based", "conditions": "for effect on resistance: connectivity map drug screen, at least 6 cell lines of different tissues; for Effect on resistance level: t-test, positive/negative sign = increasing/decreasing level following drug treatment", "from_the_text": "(§1) Using the drug screen of the connectivity map [Aravind Subramanian et al., Cell 171 (6): 1437-1452 (2017)], the effect of each drug on resistance and tolerance was next analyzed in at least 6 cell lines of different tissues. Identification of multiple drugs that display an effect on resistance/tolerance-related diseases allows (i) repurposing of drugs, and (ii) personalized prioritization of drugs. For instance, the screen tested three P glycoprotein inhibitors: zosuquidar, elacridar, and dofequidar. […] Thus, for specific disease in which P glycoprotein inhibitor is required, it is possible to prioritize drugs for each patient based on its baseline combination of resistance and tolerance state."}, "[1]": {"test_system": "disease tolerance (T) level", "test": "Connectivity map drug screen: effect of each drug on tolerance level", "type": "cell-based", "conditions": "for effect on tolerance: connectivity map drug screen, at least 6 cell lines of different tissues, all tissues under study; for Effect on tolerance level: t-test, positive/negative sign = increasing/decreasing level following drug treatment", "from_the_text": "as §1"}},
  "data": [
    {"smiles": "O=C(C(c1ccccc1)c1ccccc1)N1CCN(CC(O)COc2cccc3ncccc23)CC1", "note": "(stereo not shown) [dofequidar]", "values": [
      {"measurement": "effect on resistance", "setting": "resistance (R) level", "result": "increasing resistance"},
      {"measurement": "Effect on resistance level", "setting": "resistance (R) level; tissue: breast", "result": 0.89, "unit": "signed −log p-values"},
      {"measurement": "Effect on resistance level", "setting": "resistance (R) level; tissue: kidney", "result": 7.33, "unit": "signed −log p-values"},
      {"measurement": "Effect on resistance level", "setting": "resistance (R) level; tissue: large intestine", "result": 9.14, "unit": "signed −log p-values"},
      {"measurement": "Effect on resistance level", "setting": "resistance (R) level; tissue: pancreas", "result": 5.84, "unit": "signed −log p-values"},
      {"measurement": "Effect on resistance level", "setting": "resistance (R) level; tissue: prostate", "result": 3.47, "unit": "signed −log p-values"},
      {"measurement": "Effect on resistance level", "setting": "resistance (R) level; tissue: skin", "result": 9.17, "unit": "signed −log p-values"},
      {"measurement": "effect on tolerance", "setting": "[1]", "result": "increased tolerance"},
      {"measurement": "Effect on tolerance level", "setting": "[1]; tissue: breast", "result": 6.29, "unit": "signed −log p-values"},
      {"measurement": "Effect on tolerance level", "setting": "[1]; tissue: kidney", "result": 2.40, "unit": "signed −log p-values"},
      {"measurement": "Effect on tolerance level", "setting": "[1]; tissue: large intestine", "result": 6.03, "unit": "signed −log p-values"},
      {"measurement": "Effect on tolerance level", "setting": "[1]; tissue: pancreas", "result": 2.60, "unit": "signed −log p-values"},
      {"measurement": "Effect on tolerance level", "setting": "[1]; tissue: prostate", "result": 1.54, "unit": "signed −log p-values"},
      {"measurement": "Effect on tolerance level", "setting": "[1]; tissue: skin", "result": 0.89, "unit": "signed −log p-values"}
    ]},
    {"smiles": "COc1cc2c(cc1OC)CN(CCc1ccc(NC(=O)c3cccc4c(=O)c5cccc(OC)c5[nH]c34)cc1)CC2", "note": "[elacridar]", "values": [
      {"measurement": "effect on resistance", "setting": "resistance (R) level", "result": "increasing resistance"},
      {"measurement": "Effect on resistance level", "setting": "resistance (R) level; tissue: breast", "result": 7.26, "unit": "signed −log p-values"},
      {"measurement": "Effect on resistance level", "setting": "resistance (R) level; tissue: kidney", "result": 6.87, "unit": "signed −log p-values"},
      {"measurement": "Effect on resistance level", "setting": "resistance (R) level; tissue: large intestine", "result": 10.56, "unit": "signed −log p-values"},
      {"measurement": "Effect on resistance level", "setting": "resistance (R) level; tissue: pancreas", "result": 2.33, "unit": "signed −log p-values"},
      {"measurement": "Effect on resistance level", "setting": "resistance (R) level; tissue: prostate", "result": 4.37, "unit": "signed −log p-values"},
      {"measurement": "Effect on resistance level", "setting": "resistance (R) level; tissue: skin", "result": 4.66, "unit": "signed −log p-values"},
      {"measurement": "effect on tolerance", "setting": "[1]", "result": "increased tolerance"},
      {"measurement": "Effect on tolerance level", "setting": "[1]; tissue: breast", "result": 1.84, "unit": "signed −log p-values"},
      {"measurement": "Effect on tolerance level", "setting": "[1]; tissue: kidney", "result": 8.48, "unit": "signed −log p-values"},
      {"measurement": "Effect on tolerance level", "setting": "[1]; tissue: large intestine", "result": 13.47, "unit": "signed −log p-values"},
      {"measurement": "Effect on tolerance level", "setting": "[1]; tissue: pancreas", "result": "−0.10", "unit": "signed −log p-values"},
      {"measurement": "Effect on tolerance level", "setting": "[1]; tissue: prostate", "result": "−1.43", "unit": "signed −log p-values"},
      {"measurement": "Effect on tolerance level", "setting": "[1]; tissue: skin", "result": 2.77, "unit": "signed −log p-values"}
    ]},
    {"smiles": "O[C@@H](COc1cccc2ncccc12)CN1CCN([C@@H]2c3ccccc3[C@@H]3[C@H](c4ccccc42)C3(F)F)CC1", "note": "[zosuquidar]", "values": [
      {"measurement": "Effect on resistance level", "setting": "resistance (R) level; tissue: breast", "result": 0.13, "unit": "signed −log p-values"},
      {"measurement": "Effect on resistance level", "setting": "resistance (R) level; tissue: kidney", "result": "−2.54", "unit": "signed −log p-values"},
      {"measurement": "Effect on resistance level", "setting": "resistance (R) level; tissue: large intestine", "result": "−7.65", "unit": "signed −log p-values"},
      {"measurement": "Effect on resistance level", "setting": "resistance (R) level; tissue: pancreas", "result": "−2.82", "unit": "signed −log p-values"},
      {"measurement": "Effect on resistance level", "setting": "resistance (R) level; tissue: prostate", "result": "−2.05", "unit": "signed −log p-values"},
      {"measurement": "Effect on resistance level", "setting": "resistance (R) level; tissue: skin", "result": "−6.00", "unit": "signed −log p-values"},
      {"measurement": "Effect on tolerance level", "setting": "[1]; tissue: breast", "result": 11.19, "unit": "signed −log p-values"},
      {"measurement": "Effect on tolerance level", "setting": "[1]; tissue: kidney", "result": 5.15, "unit": "signed −log p-values"},
      {"measurement": "Effect on tolerance level", "setting": "[1]; tissue: large intestine", "result": 5.89, "unit": "signed −log p-values"},
      {"measurement": "Effect on tolerance level", "setting": "[1]; tissue: pancreas", "result": 5.81, "unit": "signed −log p-values"},
      {"measurement": "Effect on tolerance level", "setting": "[1]; tissue: prostate", "result": 5.97, "unit": "signed −log p-values"},
      {"measurement": "Effect on tolerance level", "setting": "[1]; tissue: skin", "result": 2.91, "unit": "signed −log p-values"}
    ]}
  ]
}
